# Patent US20150004134A1, “TREATMENT OF CANCER WITH HETEROCYCLIC INHIBITORS OF GLUTAMINASE” (Calithera Biosciences, Inc., priority 2012, published 2015)
# Read-outs that look alike come from different tables or passages of the source.
# Experiments:
# [1] = target: T1, recombinant form of Glutaminase 1 (GAC) (Homo sapiens, UniProt O94925); experiment: Recombinant Enzyme Assay - Time Dependence (60 min preincubation); type: biochemical
# T1 sequence (O94925 137-598 isoform O94925-3 limits assumed): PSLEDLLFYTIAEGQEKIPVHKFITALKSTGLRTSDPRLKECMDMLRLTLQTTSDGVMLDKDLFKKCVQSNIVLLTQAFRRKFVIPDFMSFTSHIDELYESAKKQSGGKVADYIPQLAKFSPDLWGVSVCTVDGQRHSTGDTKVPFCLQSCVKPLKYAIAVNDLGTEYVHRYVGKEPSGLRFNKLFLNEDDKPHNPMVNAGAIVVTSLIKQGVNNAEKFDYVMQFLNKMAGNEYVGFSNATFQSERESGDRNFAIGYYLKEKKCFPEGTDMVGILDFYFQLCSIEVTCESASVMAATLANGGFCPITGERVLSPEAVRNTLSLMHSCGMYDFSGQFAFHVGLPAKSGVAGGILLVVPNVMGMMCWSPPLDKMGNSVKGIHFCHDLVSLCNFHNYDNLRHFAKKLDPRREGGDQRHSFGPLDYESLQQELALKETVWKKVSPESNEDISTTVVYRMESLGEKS
# Protocol: The enzyme/compound mix was sealed with sealing foil (USA Scientific) and allowed to incubate, with mild agitation, for 60 minutes at 20° C. Enzymatic reaction was started with the addition of 50 μL of substrate solution (50 mM Tris-HCl pH 8.0, 0.2 mM EDTA, 150 mM K2HPO4, 0.1 mg/ml BSA, 1 mM DTT, 20 mM L-glutamine, 2 mM NAD^+, and 10 ppm antifoam) and read in a Molecular Devices M5 plate reader at 20° C. The plate reader was configured to read absorbance (=340 nm) in kinetic mode for 15 minutes. Data was recorded as milli-absorbance units per minute and slopes were compared to a control compound and a DMSO-only control on the same plate. Compounds with slopes less than the DMSO control were considered inhibitors and plate variability was assessed using the control compound.
# P493-6 (myc "on") cells = experiment: Cell Proliferation Assay; type: cell-based; settings: P493-6, 72 h, read-out: Cell prolif P493 72 h IC50, P493-6 cells, 72 h
# Outline: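 Read-out: either Cell Titer Glo or Guava Viacount flow analysis after 72 h compound treatment of myc-on P493-6 cells (10,000/well, RPMI with 10% FBS) at 37 °C. DMSO held at 0.5% final.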
# [2] = read-out: GAC Delta N2 IC50 60 min preinc
IC50 [1] [nM],Structure (SMILES),"IC50 [1, 2] [nM]","IC50 (P493-6 (myc ""on"") cells) [nM]"
,CCCCN(C)C(=O)Cc1cccc(CC(=O)Nc2nnc(CCCCc3ccc(NC(=O)Cc4ccccc4)nn3)s2)c1 [Compound 483],4,9
,CCCN(C)C(=O)Cc1cccc(CC(=O)Nc2nnc(CCCCc3ccc(NC(=O)Cc4ccccc4)nn3)s2)c1 [Compound 484],3,11
,CC(C)CN(C)C(=O)Cc1cccc(CC(=O)Nc2nnc(CCCCc3ccc(NC(=O)Cc4ccccc4)nn3)s2)c1 [Compound 485],4,12
,CCN(C)C(=O)Cc1cccc(CC(=O)Nc2nnc(CCCCc3ccc(NC(=O)Cc4ccccc4)nn3)s2)c1 [Compound 486],4,24
,O=C(Cc1ccccc1)Nc1ccc(CCCCc2nnc(NC(=O)Cc3cccc(CC(=O)N4CCC4)c3)s2)nn1 [Compound 487],5,42
,CCOc1cccc(CC(=O)Nc2nnc(CCCCc3ccc(NC(=O)Cc4ccccc4)nn3)s2)c1 [Compound 488],320,1900
,CN1CCN(C(=O)c2cccc(CC(=O)Nc3nnc(CCCCc4ccc(NC(=O)Cc5ccccc5)nn4)s3)c2)CC1 [Compound 490],11,250
,CC(C)(C)NC(=O)Cc1cccc(CC(=O)Nc2nnc(CCCCc3ccc(NC(=O)Cc4ccccc4)nn3)s2)c1 [Compound 495],5,14
,CCCNC(=O)Cc1cccc(CC(=O)Nc2nnc(CCCCc3ccc(NC(=O)Cc4ccccc4)nn3)s2)c1 [Compound 497],4,32
,CC(C)N(C)C(=O)Cc1cccc(CC(=O)Nc2nnc(CCCCc3ccc(NC(=O)Cc4ccccc4)nn3)s2)c1 [Compound 498],3,17
,O=C(Cc1cccs1)Nc1ccc(CCCCc2nnc(NC(=O)Cc3ccccc3)s2)nn1 [Compound 499],10,190
,O=C(Cc1cccc(Cn2cccn2)c1)Nc1ccc(CCCCc2nnc(NC(=O)Cc3ccccc3)s2)nn1 [Compound 500],4,29
,CCOC(=O)Cc1cccc(CC(=O)Nc2ccc(CCCCc3nnc(NC(=O)Cc4ccccc4)s3)nn2)c1 [Compound 501],4,69
,O=C(Cc1cccc(OCCO)c1)Nc1ccc(CCCCc2nnc(NC(=O)Cc3ccccc3)s2)nn1 [Compound 502],7,75
,O=C(Cc1ccccc1)Nc1ccc(CCCCc2nnc(NC(=O)Cc3cccs3)s2)nn1 [Compound 503],8,150
,O=C(Cc1ccccc1)Nc1ccc(CCCCc2nnc(NC(=O)Cc3cccc(OC(CO)CO)c3)s2)nn1 [Compound 505],8,240
,O=C(Cc1ccccc1)Nc1ccc(CCCCc2nnc(NC(=O)Cc3cccc(OC4COC(c5ccccc5)OC4)c3)s2)nn1 (stereo not drawn) [Compound 506],10,170
,CC(C)(C)OC(=O)NCc1cccc(CC(=O)Nc2nnc(CCCCc3ccc(NC(=O)C(C)(C)C)nn3)s2)c1 [Compound 510],22,94
7,CC(C)(O)Cc1cccc(CC(=O)Nc2nnc(CCCCc3ccc(NC(=O)Cc4ccccc4)nn3)s2)c1 [Compound 513],,22
,CC(C)(O)CNC(=O)Cc1cccc(CC(=O)Nc2nnc(CCCCc3ccc(NC(=O)Cc4ccccc4)nn3)s2)c1 [Compound 514],9,63
3,CCCCNC(=O)Cc1cccc(CC(=O)Nc2ccc(CCCCc3nnc(NC(=O)Cc4ccccc4)s3)nn2)c1 [Compound 516],,28
4,Cc1nccn1Cc1cccc(CC(=O)Nc2ccc(CCCCc3nnc(NC(=O)Cc4ccccc4)s3)nn2)c1 [Compound 518],,63
,O=C(Cc1ccccc1)Nc1ccc(CCCCc2nnc(NC(=O)Cc3cccc(OCCCO)c3)s2)nn1 [Compound 519],9,59
,O=C(Cc1ccccc1F)Nc1ccc(CCCCc2nnc(NC(=O)Cc3ccccc3)s2)nn1 [Compound 520],7,56
,O=C(Cc1ccccc1Cl)Nc1ccc(CCCCc2nnc(NC(=O)Cc3ccccc3)s2)nn1 [Compound 521],6,52

IC50 [1] [nM],Structure (SMILES),"IC50 [1, 2] [nM]","IC50 (P493-6 (myc ""on"") cells) [nM]"
,O=C(Cc1ccccc1)Nc1ccc(CCCCc2nnc(NC(=O)Cc3ccccc3Cl)s2)nn1 [Compound 522],23,60
,Cc1ccccc1CC(=O)Nc1nnc(CCCCc2ccc(NC(=O)Cc3ccccc3)nn2)s1 [Compound 523],21,55
,CC(C)(C)OC(=O)NCc1cccc(CC(=O)Nc2nnc(CCCCc3ccc(NC(=O)C(C)(CO)CO)nn3)s2)c1 [Compound 530],55,280
,COc1ccccc1CC(=O)Nc1nnc(CCCCc2ccc(NC(=O)Cc3ccccc3F)nn2)s1 [Compound 532],6,59
,O=C(Cc1ccccc1)Nc1ccc(CCCCc2nnc(NC(=O)Cc3ccc(F)c(O)c3)s2)nn1 [Compound 538],4,30
,O=C(Cc1cccc(OCCCO)c1)Nc1ccc(CCCCc2nnc(NC(=O)Cc3ccccc3)s2)nn1 [Compound 539],9,45
,O=C(Cc1ccccc1)Nc1ccc(CCCCc2nnc(NC(=O)Cc3ccc(F)c(OCCO)c3)s2)nn1 [Compound 540],7,50
,CC(C)(C)NC(=O)Cc1cccc(CC(=O)Nc2ccc(CCCCc3nnc(NC(=O)Cc4ccccc4)s3)nn2)c1 [Compound 542],4,43
,CC(NC(=O)OC(C)(C)C)c1cccc(CC(=O)Nc2ccc(CCCCc3nnc(NC(=O)Cc4ccccc4)s3)nn2)c1 (stereo not drawn) [Compound 543],4,5
,COc1ccc(CC(=O)Nc2nnc(CCCCc3ccc(NC(=O)Cc4ccccc4)nn3)s2)cc1F [Compound 544],6,44
,O=C(Cc1ccccc1)Nc1ccc(CCCCc2nnc(NC(=O)Cc3cccc(C(F)(F)F)c3)s2)nn1 [Compound 546],5,27
,O=C(Cc1ccccc1)Nc1ccc(CCCCc2nnc(NC(=O)Cc3ccc(Cl)c(Cl)c3)s2)nn1 [Compound 548],10,85
,O=C(Cc1ccccc1)Nc1ccc(CCCCc2nnc(NC(=O)Cc3ccc(F)c(Cl)c3)s2)nn1 [Compound 549],6,45
,COc1ccc(CC(=O)Nc2nnc(CCCCc3ccc(NC(=O)Cc4ccccc4)nn3)s2)cc1C [Compound 550],5,36
,CN1CCC(Oc2cccc(CC(=O)Nc3nnc(CCCCc4ccc(NC(=O)Cc5ccccc5)nn4)s3)c2)CC1 [Compound 551],10,127
,COC(=O)NCc1cccc(CC(=O)Nc2ccc(CCCCc3nnc(NC(=O)C(C)c4ccccc4)s3)nn2)c1 (stereo not drawn) [Compound 553],5,19
,CCOC(=O)NCc1cccc(CC(=O)Nc2ccc(CCCCc3nnc(NC(=O)C(C)c4ccccc4)s3)nn2)c1 (stereo not drawn) [Compound 555],4,10
,CCOc1cc(CC(=O)Nc2nnc(CCCCc3ccc(NC(=O)Cc4ccccc4)nn3)s2)ccc1O [Compound 556],5,120
,CC(N)c1cccc(CC(=O)Nc2nnc(CCCCc3ccc(NC(=O)Cc4ccccc4)nn3)s2)c1 (stereo not drawn) [Compound 559],12,66
,COC(=O)NC(C)c1cccc(CC(=O)Nc2nnc(CCCCc3ccc(NC(=O)Cc4ccccc4)nn3)s2)c1 (stereo not drawn) [Compound 561],4,4
,CCOC(=O)NC(C)c1cccc(CC(=O)Nc2nnc(CCCCc3ccc(NC(=O)Cc4ccccc4)nn3)s2)c1 (stereo not drawn) [Compound 562],3,2
,CC(C)(C)C(=O)NCc1cccc(CC(=O)Nc2nnc(CCCCc3ccc(NC(=O)Cc4ccccc4)nn3)s2)c1 [Compound 564],4,2
,O=C(Cc1ccccc1Cl)Nc1ccc(CCCCc2nnc(NC(=O)Cc3ccccc3Cl)s2)nn1 [Compound 565],5,13
,COC(=O)NCc1cccc(CC(=O)Nc2ccc(CCCCc3nnc(NC(=O)Cc4cccc(CNC(=O)OC)c4)s3)nn2)c1 [Compound 573],4,15
,CCC(O)C(=O)NCc1cccc(CC(=O)Nc2nnc(CCCCc3ccc(NC(=O)Cc4ccccc4)nn3)s2)c1 (stereo not drawn) [Compound 575],7,40

Structure (SMILES),IC50 [1] [nM],"IC50 [1, 2] [nM]","IC50 (P493-6 (myc ""on"") cells) [nM]"
CC(C)CNC(=O)Cc1cccc(CC(=O)Nc2ccc(CCCCc3nnc(NC(=O)Cc4ccccc4)s3)nn2)c1 [Compound 517],3,,46
